Assay results reported in patent publication US20040254178A1, “Substituted heterocyclic compounds and methods of use” (Amgen Inc., priority 2003, published 2004).

Tested on: LPS induced TNF release
Assay: Lipopolysaccharide-Activated THP1 Cell TNF Production Assay
Format: cell-based
Conditions: Homo sapiens, THP-1, THP1 cells, 3 h at 37° C., secreted TNF-α read by ECL
Experimental: Lipopolysaccharide-Activated THP1 Cell TNF Production Assay
THP1 cells are resuspended in fresh THP1 media (RPMI 1640, 10% heat-inactivated FBS, 1XPGS, 1XNEAA, plus 30 μM βME) at a concentration of 1E6/mL. One hundred microliters of cells per well are plated in a polystyrene 96-well tissue culture. One microgram per mL of bacterial LPS is prepared in THP1 media and is transferred to the wells. Test compounds are dissolved in 100% DMSO and are serially diluted 3 fold in a polypropylene 96-well microtiter plate (drug plate). HI control and LO control wells contain only DMSO. One microliter of test compound from the drug plate followed by 10 μL of LPS are transferred to the cell plate. The treated cells are induced to synthesize and secrete TNF-α at 37° C. for 3 h. Forty microliters of conditioned media are transferred to a 96-well polypropylene plate containing 110 μL of ECL buffer (50 mM Tris-HCl pH 8.0, 100 mM NaCl, 0.05% Tween 20, 0.05% NaN3 and 1% FBS) supplemented with 0.44 nM MAB610 monoclonal Ab (R&D Systems), 0.34 nM ruthenylated AF210NA polyclonal Ab (R&D Systems) and 44 μg/mL sheep anti-mouse M280 Dynabeads (Dynal). After a 2 h incubation at room temperature with shaking, the reaction is read on the ECL M8 Instrument (IGEN Inc.). A low voltage is applied to the ruthenylated TNF-α immune complexes, which in the presence of TPA (the active component in Origlo), results in a cyclical redox reaction generating light at […]. The amount of secreted TNF-α in the presence of compound compared with that in the presence of DMSO vehicle alone (HI control) is calculated using the formula: % control (POC)=(cpd−average LO)/(average HI−average LO)*100. Data (consisting of POC and inhibitor concentration in μM) is fitted to a 4-parameter equation (y=A+((B−A)/(1+((x/C)^D))), where A is the minimum y (POC) value, B is the maximum y (POC), C is the x (cpd concentration) at the point of inflection and D is the slope factor) using a Levenburg-Marquardt non-linear regression algorithm.

Cc1c(C2CCN(C(=O)[C@@H](C)O)CC2)nnc(-c2cccc(C(F)(F)F)c2)c1-c1ccnc(NC(C)c2ccccc2)n1 (stereo in doubt) [2-Hydroxy-1-{4-[4-methyl-5-[2-(1-phenyl-ethylamino)-pyrimidin-4-yl]-6-(3-trifluoromethyl-phenyl)-pyridazin-3-yl]-piperidin-1-yl}-propan-1-one]
IC50: ≤ 20 µM

Cc1c(C2CCN(C(=O)OCc3ccccc3)CC2)nnc(-c2cccc(C(F)(F)F)c2)c1-c1ccnc(NC(C)c2ccccc2)n1 (stereo not drawn) [4-[4-Methyl-5-[2-(1-phenyl-ethylamino)-pyrimidin-4-yl]-6-(3-trifluoromethylphenyl)-pyridazin-3-yl]-piperidine-1-carboxylic acid benzyl ester]
IC50: ≤ 20 µM

Cc1c(C2CCNCC2)nnc(-c2cccc(C(F)(F)F)c2)c1-c1ccnc(NC(C)c2ccccc2)n1 (stereo not drawn) [{4-[5-Methyl-6-piperidin-4-yl-3-(3-trifluoromethyl-phenyl)-pyridazin-4-yl]-pyrimidin-2-yl}-(1-phenyl-ethyl)-amine]
IC50: ≤ 20 µM
